Reference: patent US20170232059A1, “COMPOSITION COMPRISING OXYTOCIN” (PEP-TONIC MEDICAL AB, priority 2012, published 2017)
Where two headings read alike, the source gives them in different places. One block for each compound: values may come before it. Starred links: 1 amine or outer side, 2 acyl side, 3 side chain; linkers in the order of their positions; H or OH if unused. Positions of bridges follow the written chain, without caps; N, C: chain ends. Residues, ends and D or L forms follow the SMILES beside them. X1 = O=C(CCC[*:2])[*:1]

Columns and labels:
[1] = Blood plasma levels of oxytocin after intravaginal administration (Example 1) and AUC calculation; format: in vivo, human
Method: The first value is taken before the treatment of intravaginal oxytocin has started.
Blood samples were collected from 20 individuals before and repeatedly after administration of oxytocin during a 90 minute period. […] (FIG. 2).
The amount of oxytocin which is absorbed following intravaginal administration of oxytocin expressed as area under the curve (AUC) can be calculated using the trapezoid method according to standardized pharmacokinetic procedures as the clearance rat for oxytocin (CL) is known (70 L/H).
As oxytocin levels were only measured during a 90 minute period it had to be assumed that the concentration of oxytocin after 2 hours continues to fall according to the half-life of oxytocin.

[2] = Skin penetration in Franz diffusion cells; format: in vitro ADME, pig; details: for share that has penetrated the skin: of 200 IU (approx. 0.4 mg)
Method: Skin penetration was performed in Franz diffusion cells using dermatomed pig's ear skin (thickness approx. 500 μm and surface area 0.64 cm^2). The receptor volume of each cell was 6 mL and citrate buffer, pH 4.5 was used as receptor media. The temperature was maintained at 32° C. and the stirring speed in the receptor chamber was kept at 300 rpm. Sampling was done in triplicate at 24 hours intervals for 4 days, i.e. 24, 48, 72 and 96 h. 1.5 mL of receptor media was taken and replaced with the same volume of citrate buffer. Immediately after collection the samples were kept at −20° C.
A water solution of oxytocin was prepared in a concentration of 4000 IU/g, which corresponds to ca 6.8 mg/g. The solution was pH adjusted with a 50 mM citrate buffer to 4.0 in order to achieve reasonable chemical stability. The oxytocin solutions were added in excess, ca 1 g, on the donor side of the skin and covered to prevent evaporation.
The samples were thawed just prior analysis by HPLC, method M272-0. The limit of quantification (QL) is 12.5 ng/mL or 1.25 ng injected amount.

[3] = Bioavailability of vaginally administered oxytocin, study OXYPEP002; format: in vivo; details: human; for level at 0.5 h / level at 1 h / level at 2 h: post-dose; for level at 0.5 h: read-out: Average blood oxytocin level, 30 min Visit 2; for level at 1 h: read-out: Average blood oxytocin level, 60 min Visit 2; for level at 2 h: read-out: Average blood oxytocin level, 120 min Visit 2; for AUC(0-t): read-out: AUC0-30 min
Method: The objective of the present analysis was to estimate the bioavailability of oxytocin following vaginal administration of 100 (170 μg) or 400 IU (680 μg) oxytocin vaginal gel using data from study OXYPEP002 (Clinical trial protocol OXYPEP002). The oxytocin vaginal gel is Vagitocin® gel.
Data from study OXYPEP002 was used for the analysis. Study OXYPEP002 was conducted with the primary objective to investigate the dose-relationship of topical Vagitocin on the vaginal mucosal membrane (Clinical trial protocol OXYPEP002). OXYPEP002 was a double-blind, randomized, placebo controlled trial, with a parallel group design. Vagitocin (oxytocin gel) in two different doses (100 IU and 400 IU) was administered topically once daily during 7 weeks. A placebo gel with the same composition was used as comparator. In total 64 patients were to be included in the study. At the baseline visit (visit 1), blood sampling for oxytocin analysis were drawn for the first 24 included subjects. This sample represents the true baseline oxytocin observation. For the same 24 subjects, blood sampling for oxytocin analysis were also drawn at visit 2 (2 weeks ±2 days) with sampling pre-dose and at 30 min, 60 min and 120 min post-dose. Only subjects that completed the full sampling schedule were included in the analysis. The calculations were based on average blood oxytocin measurements for each dose level and sampling time point (Table 2).
The systemic oxytocin exposure following vaginally administered oxytocin was assessed by calculating the area under the blood concentration versus time curve (AUC) according to the trapezoidal rule. The data from visit 2 were used where the pre-dose sample was assumed to represent a new baseline observation.
The blood concentration of oxytocin had not returned to the baseline observation at the lasts sampling time point (120 min post-dose).
The endogenous oxytocin level (AUCbaseline) was calculated and subtracted from the total AUC to achieve the oxytocin exposure following the vaginally administered dose (AUCvaginal).
The bioavailability was calculated according to equation 1. As no intravenous dose was administered in study OXYPEP002, AUCiv was calculated according to available information in the literature (De Groot A N et al. 1995, Amico J A et al. 1987, Dawood M Y et al. 1980) according to equation 2.

[4] = cited from earlier work
[5] = in vivo; cited from earlier work
[6] = six male subjects, intravenous 1 IU (De Groot 1995)

- fraction of the given dose absorbed ([1]; 100 IU intravaginal): 0.064
- plasma oxytocin levels at 15, 30, 60 and 90 minutes after administration ([1]; 100 and 400 IU intravaginal, FIG. 2): elevated in a pulse like fashion
- fraction of the given dose absorbed ([1]; 400 IU intravaginal): 0.11
- plasma levels of oxytocin ([1]; following 100 and 400 IU intravaginal, 90 minute period): rose dose dependently
- absorbed via the epithelial membrane into the blood stream ([1]; topical composition comprising a non-ionic cellulose ether): about 10%
- share that has penetrated the skin ([2]; after 24 h): 0.1%
- oxytocin penetrated into receptor ([2]; after 24 h, 4000 IU/g water solution): 0.6 µg
- share that has penetrated the skin ([2]; after 96 h): ~1%
- oxytocin detected in the receptor chamber ([2]; after 96 hours, 4000 IU/g citrate buffered water solution, pH 4.0, 32° C.): 4 µg
- AUC ([3]; female, blood, 100 IU, 100 IU vaginal, read-out: AUC30-60 min): 0.0633 ng·h/mL
- AUC ([3]; female, blood, 100 IU, 100 IU vaginal, read-out: AUC60-120 min): 0.11 ng·h/mL
- AUC ([3]; female, blood, 100 IU, 100 IU vaginal, residual area alternative i, read-out: AUCresidual): 0.346 ng·h/mL
- AUC ([3]; female, blood, 100 IU, 100 IU vaginal, residual area alternative i, read-out: AUCvaginal): 0.299 ng·h/mL
- bioavailability ([3]; female, blood, 100 IU, 100 IU vaginal, residual area alternative i, read-out: Bioavailability): 12%
- AUC ([3]; female, blood, 100 IU, 100 IU vaginal, residual area alternative ii, read-out: AUCresidual): 0.0322 ng·h/mL
- AUC ([3]; female, blood, 100 IU, 100 IU vaginal, residual area alternative ii, read-out: AUCvaginal): 0.156 ng·h/mL
- bioavailability ([3]; female, blood, 100 IU, 100 IU vaginal, residual area alternative ii, read-out: Bioavailability): 6.4%
- AUC ([3]; female, blood, 400 IU, 400 IU vaginal, read-out: AUC30-60 min): 0.362 ng·h/mL
- AUC ([3]; female, blood, 400 IU, 400 IU vaginal, read-out: AUC60-120 min): 0.504 ng·h/mL
- AUC ([3]; female, blood, 400 IU, 400 IU vaginal, residual area alternative i, read-out: AUCresidual): 0.783 ng·h/mL
- AUC ([3]; female, blood, 400 IU, 400 IU vaginal, residual area alternative i, read-out: AUCvaginal): 1.53 ng·h/mL
- bioavailability ([3]; female, blood, 400 IU, 400 IU vaginal, residual area alternative i, read-out: Bioavailability): 16%
- AUC ([3]; female, blood, 400 IU, 400 IU vaginal, residual area alternative ii, read-out: AUCresidual): 0.193 ng·h/mL
- AUC ([3]; female, blood, 400 IU, 400 IU vaginal, residual area alternative ii, read-out: AUCvaginal): 1.1 ng·h/mL
- bioavailability ([3]; female, blood, 400 IU, 400 IU vaginal, residual area alternative ii, read-out: Bioavailability): 11%
- bioavailability ([3]; female, blood, vaginal, 100 and 400 IU, read-out: bioavailability, range over both dose levels and alternatives): 6.4 to 16%
- level at 0.5 h ([3]; female, blood, 100 IU vaginal): 0.133 ng/mL
- level at 1 h ([3]; female, blood, 100 IU vaginal): 0.12 ng/mL
- level at 2 h ([3]; female, blood, 100 IU vaginal): 0.099 ng/mL
- AUC(0-t) ([3]; female, blood, 100 IU vaginal): 0.0426 ng·h/mL
- level at 0.5 h ([3]; female, blood, 400 IU vaginal): 0.816 ng/mL
- level at 1 h ([3]; female, blood, 400 IU vaginal): 0.63 ng/mL
- level at 2 h ([3]; female, blood, 400 IU vaginal): 0.378 ng/mL
- AUC(0-t) ([3]; female, blood, 400 IU vaginal): 0.219 ng·h/mL
- AUC ([3]; in vivo, iv, 1 ug, AUCiv, assumed intravenous dose of 1 μg and a CL of 70 L/h): 0.0143 ng·h/mL
Compound: CC[C@H](C)[C@@H]1NC(=O)[C@H](Cc2ccc(O)cc2)NC(=O)[C@@H](N)CSSC[C@@H](C(=O)N2CCC[C@H]2C(=O)N[C@@H](CC(C)C)C(=O)NCC(N)=O)NC(=O)[C@H](CC(N)=O)NC(=O)[C@H](CCC(N)=O)NC1=O [oxytocin, Cys-Tyr-Ile-Gln-Asn-Cys-Pro-Leu-Gly-NH2]
- plasma oxytocin value obtained 10 hours after treatment ([1]; intravaginal, FIG. 2, vs before treatment): higher than those observed before treatment was started
- CL ([4]; healthy male subjects (Amico 1987, Dawood 1980)): 70 to 90 L/h
- clearance rate (CL) ([4]; known value used for AUC calculation): 70 L/H
- terminal elimination half-life (t1/2) [4, 6]: 19.8 min
- volume of distribution (V) [4, 6]: 33.2 L
- total body CL ([4]; six male subjects, intravenous dose of 1 IU (1.7 μg), two-compartment model (De Groot 1995)): 67.1 L/h
- half-life [5]: about 30 min

Compound: CC[C@H](C)[C@@H]1NC(=O)[C@H](Cc2ccc(OC)cc2)NC(=O)CCCSC[C@@H](C(=O)N2CCC[C@H]2C(=O)N[C@@H](CC(C)C)C(=O)NCC(N)=O)NC(=O)[C@H](CC(N)=O)NC(=O)[C@H](CCC(N)=O)NC1=O [carbetocin] (Y(Me)IQNCPLG-NH2; linker N-5 via X1)
- half-life relative to oxytocin [5]: about three times longer
